Question: Which results are given for `CCOC(=O)c1c(CSc2ccccc2)n(C)c2cc(Br)c(O)c(CN(C)C)c12.Cl.O`?
Answer: solubility (mole fraction) (in DMF, 293.15 K): 0.0228; solubility (mole fraction) (in DMF, 298.15 K): 0.0244; solubility (mole fraction) (in DMF, 303.15 K): 0.0276; solubility (mole fraction) (in DMF, 308.15 K): 0.0317; solubility (mole fraction) (in DMF, 313.15 K): 0.0351; solubility (mole fraction) (in DMF, 318.15 K): 0.0396; solubility (mole fraction) (in DMF, 323.15 K): 0.0457; solubility (mole fraction) (in DMF, 328.15 K): 0.0513; solubility (mole fraction) (in DMF, 333.15 K): 0.0596; solubility (mole fraction) (in NMP, 293.15 K): 0.0325; solubility (mole fraction) (in NMP, 298.15 K): 0.0352; solubility (mole fraction) (in NMP, 303.15 K): 0.0375; solubility (mole fraction) (in NMP, 308.15 K): 0.0417; solubility (mole fraction) (in NMP, 313.15 K): 0.0462; solubility (mole fraction) (in NMP, 318.15 K): 0.0503; solubility (mole fraction) (in NMP, 323.15 K): 0.0554; solubility (mole fraction) (in NMP, 328.15 K): 0.0635; solubility (mole fraction) (in NMP, 333.15 K): 0.0722; solubility (mole fraction) (in THF, 293.15 K): 0.000382; solubility (mole fraction) (in THF, 298.15 K): 0.000492; solubility (mole fraction) (in THF, 303.15 K): 0.000678; solubility (mole fraction) (in THF, 308.15 K): 0.000947; solubility (mole fraction) (in THF, 313.15 K): 0.00125; solubility (mole fraction) (in THF, 318.15 K): 0.00163; solubility (mole fraction) (in THF, 323.15 K): 0.00211; solubility (mole fraction) (in THF, 328.15 K): 0.00265; solubility (mole fraction) (in acetone, 293.15 K): 0.000193; solubility (mole fraction) (in acetone, 298.15 K): 0.000252; solubility (mole fraction) (in acetone, 303.15 K): 0.000364; solubility (mole fraction) (in acetone, 308.15 K): 0.000524; solubility (mole fraction) (in acetone, 313.15 K): 0.000696; solubility (mole fraction) (in acetone, 318.15 K): 0.000937; solubility (mole fraction) (in acetone, 323.15 K): 0.00128; solubility (mole fraction) (in ethanol, 293.15 K): 0.00973; solubility (mole fraction) (in ethanol, 298.15 K): 0.0116; solubility (mole fraction) (in ethanol, 303.15 K): 0.0132; solubility (mole fraction) (in ethanol, 308.15 K): 0.0154; solubility (mole fraction) (in ethanol, 313.15 K): 0.018; solubility (mole fraction) (in ethanol, 318.15 K): 0.0234; solubility (mole fraction) (in ethanol, 323.15 K): 0.0294; solubility (mole fraction) (in ethanol, 328.15 K): 0.0366; solubility (mole fraction) (in ethanol, 333.15 K): 0.0436; solubility (mole fraction) (in ethyl acetate, 293.15 K): 7.86e-05; solubility (mole fraction) (in ethyl acetate, 298.15 K): 0.000101; solubility (mole fraction) (in ethyl acetate, 303.15 K): 0.000125; solubility (mole fraction) (in ethyl acetate, 308.15 K): 0.000158; solubility (mole fraction) (in ethyl acetate, 313.15 K): 0.0002; solubility (mole fraction) (in ethyl acetate, 318.15 K): 0.000245; solubility (mole fraction) (in ethyl acetate, 323.15 K): 0.000295; solubility (mole fraction) (in ethyl acetate, 328.15 K): 0.000354; solubility (mole fraction) (in ethyl acetate, 333.15 K): 0.000426; solubility (mole fraction) (in isopropanol, 293.15 K): 0.00114; solubility (mole fraction) (in isopropanol, 298.15 K): 0.00161; solubility (mole fraction) (in isopropanol, 303.15 K): 0.0021; solubility (mole fraction) (in isopropanol, 308.15 K): 0.0029; solubility (mole fraction) (in isopropanol, 313.15 K): 0.00356; solubility (mole fraction) (in isopropanol, 318.15 K): 0.00476; solubility (mole fraction) (in isopropanol, 323.15 K): 0.00602; solubility (mole fraction) (in isopropanol, 328.15 K): 0.00749; solubility (mole fraction) (in isopropanol, 333.15 K): 0.00955; solubility (mole fraction) (in methanol, 293.15 K): 0.0405; solubility (mole fraction) (in methanol, 298.15 K): 0.0442; solubility (mole fraction) (in methanol, 303.15 K): 0.0494; solubility (mole fraction) (in methanol, 308.15 K): 0.0541; solubility (mole fraction) (in methanol, 313.15 K): 0.0622; solubility (mole fraction) (in methanol, 318.15 K): 0.0715; solubility (mole fraction) (in methanol, 323.15 K): 0.0786; solubility (mole fraction) (in methanol, 328.15 K): 0.0903; solubility (mole fraction) (in n-butanol, 293.15 K): 0.00344; solubility (mole fraction) (in n-butanol, 298.15 K): 0.00441; solubility (mole fraction) (in n-butanol, 303.15 K): 0.00545; solubility (mole fraction) (in n-butanol, 308.15 K): 0.00709; solubility (mole fraction) (in n-butanol, 313.15 K): 0.00865; solubility (mole fraction) (in n-butanol, 318.15 K): 0.0105; solubility (mole fraction) (in n-butanol, 323.15 K): 0.0127; solubility (mole fraction) (in n-butanol, 328.15 K): 0.0159; solubility (mole fraction) (in n-butanol, 333.15 K): 0.0203; solubility (mole fraction) (in n-propanol, 293.15 K): 0.00522; solubility (mole fraction) (in n-propanol, 298.15 K): 0.00628; solubility (mole fraction) (in n-propanol, 303.15 K): 0.00728; solubility (mole fraction) (in n-propanol, 308.15 K): 0.00878; solubility (mole fraction) (in n-propanol, 313.15 K): 0.0112; solubility (mole fraction) (in n-propanol, 318.15 K): 0.0141; solubility (mole fraction) (in n-propanol, 323.15 K): 0.0171; solubility (mole fraction) (in n-propanol, 328.15 K): 0.0214; solubility (mole fraction) (in n-propanol, 333.15 K): 0.027; solubility (mole fraction) (in water, 293.15 K): 5.82e-05; solubility (mole fraction) (in water, 298.15 K): 7.34e-05; solubility (mole fraction) (in water, 303.15 K): 8.66e-05; solubility (mole fraction) (in water, 308.15 K): 0.000108; solubility (mole fraction) (in water, 313.15 K): 0.000126; solubility (mole fraction) (in water, 318.15 K): 0.000156; solubility (mole fraction) (in water, 323.15 K): 0.000204; solubility (mole fraction) (in water, 328.15 K): 0.000251; solubility (mole fraction) (in water, 333.15 K): 0.000309
